For seven compounds, Bliss excess results are on record in the supplement of paper PMC11061612.

What all share (assay): Bliss excess, mean over the matrix (fraction); higher = more synergy
The test system of assay [1] is LN-405 (Glioblastoma). In short, it runs like this: (§1)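 After 24 hours at 37°C and 5% CO2 in 1536-well plates, cells in DMEM/F12 or RPMI plus 10% FBS received two-drug dose matrices for 72 hours. Viability came from CellTiter-Glo 2.0 luminescence and was scaled as inhibition, anchored at 0 by vehicle wells and at 1 by blank wells. Combination Emax is taken as the second-highest inhibition in the matrix, and Bliss excess as the observed combination effect less EA + EB − EA·EB, with EA and EB the single-agent effects.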

Assay [2] has as its system CAL-29 (Bladder Carcinoma). In short, it runs like this: as §1
Assay [3] has as its system A498 (Kidney Carcinoma). In a few lines: as §1
Assay [4] deals with NCI-H2591 (Mesothelioma). In a few lines:
as §1

Assay [5] deals with 8-MG-BA (Glioblastoma). In a few lines: as §1
In assay [6] the test system is ARH-77 (Non-Cancerous). In a few lines:
as §1

In assay [7] the test system is BICR22 (Oral Cavity Carcinoma). In short, it runs like this: as §1
In assay [8] the test system is IGR-37 (Melanoma). In short, it runs like this:
as §1

The test system of assay [9] is HCC1954 (Breast Carcinoma). In short, it runs like this: as §1
For assay [10], the system named is ONS-76 (Other Solid Carcinomas). In a few lines: as §1
Assay [11] relates to SISO (Cervical Carcinoma). In short, it runs like this: as §1
Assay [12] concerns SK-MES-1 (Squamous Cell Lung Carcinoma). In short, it runs like this: as §1
Assay [13] relates to SK-MG-1 (Low Grade Glioma). In short, it runs like this: as §1
In assay [14] the test system is FU97 (Gastric Carcinoma). In short, it runs like this: as §1
Assay [15] deals with U-2-OS (Osteosarcoma). In short, it runs like this:
as §1

Assay [16] deals with OS-RC-2 (Kidney Carcinoma). In short, it runs like this:
as §1

Assay [17] relates to KARPAS-422 (B-Cell Non-Hodgkin's Lymphoma). In short, it runs like this:
as §1

Assay [18] concerns JSC-1 (B-Cell Non-Hodgkin's Lymphoma). In a few lines: as §1
Assay [19] concerns NCI-H2141 (Small Cell Lung Carcinoma). In a few lines: as §1
Assay [20] concerns NCI-H1650 (Lung Adenocarcinoma). In short, it runs like this: as §1

Take `CN(C)CCCOc1ccc(-c2ccc3ncc4c(c3c2)n(C2CCOCC2)c(=O)n4C)cn1` [AZD0156] + C=CCn1c(=O)c2cnc(Nc3ccc(N4CCN(C)CC4)cc3)nc2n1-c1cccc(C(C)(C)O)n1 [AZD1775] (first compound max 1 µM, partner max 1 µM): the Bliss excess in assay [1] was -0.0478; in [2], -0.0301; in [3], -0.0532; in assay [4], -0.0306; in assay [5], -0.0587; in assay [6], -0.0207. Also, the Bliss excess in assay [7] was -0.0146; in assay [8], -0.0159; in assay [9] it was -0.034; in assay [10] it was -0.0487; in [11], -0.0513; in assay [12], -0.0176. For the same compound, the Bliss excess in [13] was 0.0174; in [14], -0.0101; in [15], 0.0036; in [16], -0.0652; in assay [17], -0.0476; in [18], -0.0102. Moreover, the Bliss excess was -0.0944 in assay [19] and -0.0451 in assay [20].

In the case of `CN(C)CCCOc1ccc(-c2ccc3ncc4c(c3c2)n(C2CCOCC2)c(=O)n4C)cn1` [AZD0156] + CCN(CCO)CCCOc1ccc2c(Nc3cc(CC(=O)Nc4cccc(F)c4)[nH]n3)ncnc2c1 [AZD2811] (first compound max 1 µM, 7x7, partner max 1 µM), the Bliss excess in [1] was -0.0356; in assay [2], 0.0269; in assay [3], -0.0302; in assay [4], -0.0204; in assay [5], -0.0033; in assay [6], 0.0216. The Bliss excess was 0.0091 in [7]; -0.0191 in [8]; -0.0137 in [9]; -0.0169 in assay [10]; 0.0081 in [11]; -0.0458 in assay [12]. In addition, the Bliss excess is 0.0212 in assay [13]; -0.0947 in assay [14]; -0.0148 in [15]; -0.0312 in assay [16]; 0.0004 in assay [17]; 0.0161 in assay [18]. In addition, the Bliss excess in assay [19] was -0.0327; in [20] it was -0.0571.

As for `CN(C)CCCOc1ccc(-c2ccc3ncc4c(c3c2)n(C2CCOCC2)c(=O)n4C)cn1` [AZD0156] + C[C@@H]1COCCN1C2=NC(=NC(=C2)C3(CC3)[S@](=N)(=O)C)C4=C5C=CNC5=NC=C4 [AZD6738] (first compound max 1 µM, 7x7, partner max 10 µM), the Bliss excess in assay [1] was -0.0236; in assay [2], 0.0162; in assay [3], -0.0347; in assay [4], -0.0461; in assay [5] it was 0.0389; in assay [6], 0.0673. The Bliss excess is -0.0626 in assay [7]; -0.0153 in [8]; 0.0016 in assay [9]; 0.0096 in assay [10]; 0.0119 in assay [11]; -0.0406 in [12]. In addition, the Bliss excess in assay [13] was 0.0249; in assay [14] it was -0.0353; in [15], 0.0445; in assay [16] it was -0.0419; in [17], -0.0444; in [18], 0.0233. Moreover, the Bliss excess in assay [19] was -0.0766; in [20], -0.0294.

`CN(C)CCCOc1ccc(-c2ccc3ncc4c(c3c2)n(C2CCOCC2)c(=O)n4C)cn1` [AZD0156] + O=C(c1cc(Cc2n[nH]c(=O)c3ccccc23)ccc1F)N1CCN(C(=O)C2CC2)CC1 [Olaparib] (first compound max 3 µM, partner max 3 µM): the Bliss excess in assay [1] is -0.0375; in assay [2], 0.0098; in assay [3], 0.047; in assay [4], -0.0248; in assay [5] it was 0.079; in [6] it was 0.0648. Besides, the Bliss excess in assay [7] was -0.0003; in assay [8], -0.0103; in assay [9], 0.0066; in assay [10], 0.0366; in assay [11], 0.0631; in assay [12], -0.0199. The Bliss excess was 0.0333 in [13]; -0.0154 in [14]; 0.0203 in [15]; -0.0432 in assay [16]; 0.0171 in assay [17]; 0.171 in [18]. Besides, the results for the Bliss excess in assay [19] and in assay [20] were 0.0117 and -0.0462, respectively.

For the compound `C=CCn1c(=O)c2cnc(Nc3ccc(N4CCN(C)CC4)cc3)nc2n1-c1cccc(C(C)(C)O)n1` [AZD1775] + C1CN(CCC1(C(=O)N[C@@H](CCO)C2=CC=C(C=C2)Cl)N)C3=NC=NC4=C3C=CN4 [Capivasertib] (first compound max 3 µM, partner max 3 µM), the Bliss excess in assay [1] was -0.0436; in [2] it was 0.0187; in [3], -0.0315; in [4], -0.035; in assay [5], 0.0277; in assay [6], 0.018. Further, the Bliss excess in assay [7] was 0.0369; in assay [8] it was -0.0316; in assay [9], 0.002; in assay [10], -0.0258; in assay [11], -0.102; in assay [12] it was 0.04. Besides, the Bliss excess in assay [13] is -0.0212; in assay [14], 0.0946; in assay [15], -0.0453; in [16] it was -0.085; in [17], -0.0691; in assay [18] it was -0.0146. In addition, the Bliss excess in [19] was -0.0268; in assay [20] it was -0.0473.

With `C=CCn1c(=O)c2cnc(Nc3ccc(N4CCN(C)CC4)cc3)nc2n1-c1cccc(C(C)(C)O)n1` [AZD1775] + C[C@@H]1COCCN1C2=NC(=NC(=C2)C3(CC3)[S@](=N)(=O)C)C4=C5C=CNC5=NC=C4 [AZD6738] (first compound max 1 µM, partner max 10 µM), the Bliss excess in assay [1] was -0.0025; in assay [2], -0.006; in assay [3] it was -0.0536; in assay [4], -0.0355; in [5], -0.032; in [6], 0.0324. In addition, the Bliss excess in assay [7] is 0.0233; in [8] it was 0.0017; in [9], 0.111; in assay [10], -0.0256; in assay [11], 0.0461; in assay [12] it was -0.0223. Also, the Bliss excess in assay [13] is -0.0173; in assay [14] it was -0.0414; in assay [15] it was 0.0364; in assay [16], -0.0604; in assay [17], -0.0445; in [18], 0.0409. Further, the Bliss excess in [19] was 0.0248; in assay [20], -0.0054.

Turning to `C=CCn1c(=O)c2cnc(Nc3ccc(N4CCN(C)CC4)cc3)nc2n1-c1cccc(C(C)(C)O)n1` [AZD1775] + O=C(c1cc(Cc2n[nH]c(=O)c3ccccc23)ccc1F)N1CCN(C(=O)C2CC2)CC1 [Olaparib] (first compound max 1 µM, partner max 10 µM), the Bliss excess is -0.0583 in assay [1]; -0.0722 in assay [2]; -0.067 in assay [3]; -0.053 in assay [4]; -0.0163 in [5]; -0.004 in [6]. For the same compound, the Bliss excess in assay [7] was -0.106; in assay [8] it was -0.0132; in assay [9] it was -0.0208; in [10] it was -0.0826; in assay [11], 0.0151; in assay [12] it was -0.0915. Moreover, the Bliss excess was 0.0058 in assay [13]; -0.148 in assay [14]; -0.0258 in assay [15]; -0.0981 in [16]; -0.0648 in assay [17]; -0.0434 in assay [18]. Further, the Bliss excess is -0.0638 in assay [19] and -0.0643 in [20].
